Measured values published in patent publication US8063012B2, “Neuroprotective peptide inhibitors of AP-1 signaling and uses therefor” (Phylogica Limited, priority 2006, dated 2011).
Non-standard residues stand in square brackets, D forms with d. Residues, ends and D or L forms follow the SMILES beside them.

Tests used:
[1] = tested on: primary cortical neuronal cultures; experiment: Glutamate excitotoxicity in primary cortical neuronal cultures, neuronal viability by MTS assay; format: cell-based, rat; conditions: for neuroprotection compared with JNKI-1D-TAT: 1 μM concentration
Description: Neurons were resuspended in Neurobasal (NB; Invitrogen) containing 2% B27 supplement (B27; Invitrogen). Before seeding, culture vessels comprising either a 96-well plastic plate or 24-well plastic plate with 13 mm glass coverslips (ProSciTech, Australia), were coated with poly-D-lysine (50 μg/mL; 70-150K; Sigma) and incubated overnight at room temperature. […] Neurons were plated to obtain approximately 10,000 viable neurons for each well of a 96-well plate, or 200,000 viable neurons per well of a 24-well plate, on day in vitro (DIV) […]. […] On DIV 4, one third of the culture medium was removed and replaced with fresh NB/2% B27 containing the mitotic inhibitor, cytosine arabinofuranoside (Sigma) at 1 μM concentration. On DIV 8, one half of the culture medium was replaced with NB/2% B27.
(§1) To induce glutamate excitotoxicity in the cortical neuronal cultures (96-well plate format), 50 μl of conditioned media containing 200 μM glutamate was added to culture wells containing 50 μl conditioned media (100 μM final glutamate concentration). Cultures were incubated at 37° C. in a CO2 incubator for 5 minutes, after which time the media was replaced with 100 μl of 50% NB/2% N2 and 50% balance salt solution (NB/N2:BSS).
Untreated and glutamate-treated control samples received media additions with and without glutamate respectively.
(§2) Eighteen hours after glutamate exposure, neuronal cultures were examined by light microscopy for qualitative assessment of neuronal damage. Neuronal viability was quantitatively measured by 3-(4,5,dimethyliazol-2-yl)-5-(3-carboxymethoxy-phenyl)-2-(4-sulfophenyl)-2H-tetrazolium salt (MTS) assay (Promega, Australia). The MTS assay measures the mitochondrial conversion of the tetrazolium salt to a water-soluble brown formazan salt, which is detected spectrophotometrically at 495 nm. MTS absorbance data was converted to reflect proportional cell viability relative to both the untreated and glutamate treated controls. […] All assays were performed with quadruplicate sister neuronal cultures repeated a minimum of four times independently.

[2] = tested on: primary cortical neuronal cultures; experiment: Light microscopy assessment of neuronal damage after glutamate exposure; format: cell-based, rat; conditions: for neuronal morphology (cellular rounding, survival) after glutamate exposure: light microscopy, one hour to 18 hours post glutamate exposure; for neurons that appeared intact and viable: Sprague-Dawley, rat, 18 hours
Description: Cortical neuronal cultures were established as described by Meloni et al., Neuroscience 108, 17-26, 2001. Briefly, cortical tissue from E18-E19 Sprague-Dawley rats was dissociated in Dulbelcco's Modified Eagle Medium (DMEM; Invitrogen, Australia) supplemented with 1.3 mM L-cysteine, 0.9 mM NaHCO3, 10 units/ml papain (Sigma, USA) and 50 units/ml DNase (Sigma) and washed in cold DMEM/10% (v/v) horse serum. Neurons were resuspended in Neurobasal (NB; Invitrogen) containing 2% B27 supplement (B27; Invitrogen). Before seeding, culture vessels comprising either a 96-well plastic plate or 24-well plastic plate with 13 mm glass coverslips (ProSciTech, Australia), were coated with poly-D-lysine (50 μg/mL; 70-150K; Sigma) and incubated overnight at room temperature. The poly-D-lysine was removed and replaced with NB (containing 2% B27; 4% fetal bovine serum; 1% horse serum; 62.5 μM glutamate; 25 μM 2-mercaptoethanol; and 30 μg/mL streptomycin and 30 μg/mL penicillin). Neurons were plated to obtain approximately 10,000 viable neurons for each well of a 96-well plate, or 200,000 viable neurons per well of a 24-well plate, on day in vitro (DIV) […]. Neuronal cultures were maintained in a CO2 incubator (5% CO2, 95% air balance, 98% humidity) at 37° C. On DIV 4, one third of the culture medium was removed and replaced with fresh NB/2% B27 containing the mitotic inhibitor, cytosine arabinofuranoside (Sigma) at 1 μM concentration. On DIV 8, one half of the culture medium was replaced with NB/2% B27. Cultures were used on DIV 11 or 12, and consisted of >95% neurons.
as §1, §2

[3] = Sprague-Dawley, rat, 18 h, 5 μM
[4] = 2 μM extracellular concentration

In the case of `CC(C)C[C@@H](NC(=O)[C@@H](Cc1ccccc1)NC(=O)[C@H]1CCCN1C(=O)[C@@H](CCC(N)=O)NC(=O)[C@H](NC(=O)[C@H]1CCCN1C(=O)[C@@H](CCCNC(=N)N)NC(=O)[C@@H](CO)NC(=O)[C@@H](CCC(N)=O)NC(=O)[C@@H](CC(=O)O)NC(=O)[C@H](N)[C@H](C)O)C(C)C)C(=O)N[C@H](CC(N)=O)C(=O)N[C@H](CC(C)C)C(=O)N[C@@H](C(=O)N[C@@H](C(=O)N1CCC[C@@H]1C(=O)N[C@H](CCCNC(=N)N)C(=O)N[C@H](CCCCN)C(=O)N1CCC[C@@H]1C(=O)N[C@H](CCCNC(=N)N)C(=O)N1CCC[C@@H]1C(=O)N1CCC[C@@H]1C(=O)N[C@H](CCCNC(=N)N)C(=O)N[C@H](CCCNC(=N)N)C(=O)N[C@H](CCCNC(=N)N)C(=O)N[C@H](CCC(N)=O)C(=O)N[C@H](CCCNC(=N)N)C(=O)N[C@H](CCCNC(=N)N)C(=O)N[C@H](CCCCN)C(=O)N[C@H](CCCCN)C(=O)N[C@H](CCCNC(=N)N)C(=O)NCC(=O)O)[C@H](C)O)[C@H](C)O` [JNK1-1D-TAT, reference compound], the “neuronal viability following glutamate excitotoxicity” value ([1]; 5 μM extracellular peptide, 100 μM glutamate 5 min, MTS 18 h, no insult = 100%, listed as JNKI-1 D-TAT) is reported as 75%, the “neuronal viability following glutamate excitotoxicity” value ([1]; 5 μM extracellular peptide, 100 μM glutamate 5 min, MTS 18 h, no insult = 100%, listed as JNKI-1D-TAT) is reported as 89% and the “extracellular concentration providing significant neuroprotection” value ([1]; glutamate excitotoxicity, dose response 0.1-10 μM) is reported as at least 2 µM. For the same compound, the “concentrations at which significant neuroprotection is exhibited” value ([1]; glutamate excitotoxicity, p<0.0077) was “micromolar concentrations” and the “neuronal morphology (cellular rounding, survival) after glutamate exposure” value (“neuronal morphology” below) [2] was “did not begin to round and survived glutamate excitotoxicity”.
With `CC[C@@H](C)[C@@H](NC(=O)[C@H](N)Cc1ccc(O)cc1)C(=O)N[C@H](Cc1ccc(O)cc1)C(=O)N1CCC[C@@H]1C(=O)N[C@H](Cc1ccc(O)cc1)C(=O)N[C@H](C)C(=O)N[C@H](Cc1ccc(O)cc1)C(=O)N[C@H](CO)C(=O)N[C@H](CCC(N)=O)C(=O)N[C@H](CC(N)=O)C(=O)N[C@@H](C(=O)N[C@H](CC(C)C)C(=O)NCC(=O)N[C@H](CCCNC(=N)N)C(=O)N[C@H](CCCNC(=N)N)C(=O)N[C@H](CCCNC(=N)N)C(=O)N[C@H](CCC(N)=O)C(=O)N[C@H](CCCNC(=N)N)C(=O)N[C@H](CCCNC(=N)N)C(=O)N[C@H](CCCCN)C(=O)N[C@H](CCCCN)C(=O)N[C@H](CCCNC(=N)N)C(=O)NCC(=O)O)[C@H](C)CC` [PYC19D-TAT] the “neuroprotection compared with JNKI-1D-TAT” value [1] was “greater neuroprotection than JNKI-1D-TAT”, the “neuroprotection following glutamate excitotoxicity” value ([1]; 1 μM extracellular concentration) was “significant neuroprotection” and the “neuronal viability following glutamate excitotoxicity” value [1, 3] was 68%. The “neuroprotection of D-isoform compared with L-isoform” value ([1]; concentrations higher than 1 μM) was “clearly provides enhanced neuroprotection”.
For `CC[C@@H](C)[C@@H](NC(=O)[C@@H](CCC(=O)O)NC(=O)[C@@H](CO)NC(=O)[C@@H](CO)NC(=O)[C@@H](CO)NC(=O)[C@@H](CCCCN)NC(=O)[C@@H](CCCNC(=N)N)NC(=O)[C@@H](CCC(=O)O)NC(=O)[C@H](N)CCCNC(=N)N)C(=O)NCC(=O)NCC(=O)N[C@H](CO)C(=O)N[C@H](CCCNC(=N)N)C(=O)N[C@@H](C(=O)N[C@H](CO)C(=O)N[C@H](CCC(N)=O)C(=O)N[C@H](Cc1ccc(O)cc1)C(=O)N[C@H](C)C(=O)NCC(=O)O)[C@H](C)CC` [PYC35D, Arg Glu Arg Lys Ser Ser Ser Glu Ile Gly Gly Ser Arg Ile Ser Gln Tyr Ala Gly] (H-[dR][dE][dR][dK][dS][dS][dS][dE][dI]GG[dS][dR][dI][dS][dQ][dY][dA]G-OH; N-terminus and C-terminus assumed), the “neurons that appeared intact and viable” value [2] was 2-5% and the “neuronal morphology” value [2] was “displayed cellular rounding”.
In the case of `CC[C@@H](C)[C@@H](NC(=O)[C@@H](CCCCN)NC(=O)[C@H]1CCCN1)C(=O)N[C@H](CO)C(=O)N[C@H](CCC(N)=O)C(=O)N[C@H](Cc1ccc(O)cc1)C(=O)NCC(=O)N[C@H](CCC(N)=O)C(=O)N[C@H](CCCNC(=N)N)C(=O)N[C@H](CCCNC(=N)N)C(=O)N[C@H](CCCNC(=N)N)C(=O)NCC(=O)N[C@H](CCC(N)=O)C(=O)N[C@H](CC(C)C)C(=O)NCC(=O)O` [PYC36D, Pro Lys Ile Ser Gln Tyr Gly Gln Arg Arg Arg Gly Gln Leu Gly] (H-[dP][dK][dI][dS][dQ][dY]G[dQ][dR][dR][dR]G[dQ][dL]G-OH; N-terminus and C-terminus assumed), the “neurons that appeared intact and viable” value [2] is reported as 2-5% and the “neuronal morphology” value [2] is reported as “displayed cellular rounding”.
`CC(C)C[C@@H](NC(=O)[C@H]1CCCN1C(=O)[C@@H](C)NC(=O)[C@@H](Cc1c[nH]cn1)NC(=O)[C@H](N)CCCNC(=N)N)C(=O)N[C@H](C)C(=O)N[C@H](CCCNC(=N)N)C(=O)NCC(=O)N[C@H](CO)C(=O)N[C@H](Cc1c[nH]c2ccccc12)C(=O)N[C@H](CCCNC(=N)N)C(=O)NCC(=O)N[C@H](CCC(N)=O)C(=O)N1CCC[C@@H]1C(=O)N[C@H](CCC(N)=O)C(=O)N[C@H](CCC(N)=O)C(=O)NCC(=O)N1CCC[C@@H]1C(=O)N[C@H](CCC(N)=O)C(=O)N[C@H](CCCNC(=N)N)C(=O)N[C@H](CCCNC(=N)N)C(=O)NCC(=O)N[C@H](CCC(N)=O)C(=O)N[C@H](CC(C)C)C(=O)NCC(=O)NCC(=O)N[C@H](CCCNC(=N)N)C(=O)N[C@H](CCCNC(=N)N)C(=O)N[C@H](CCCNC(=N)N)C(=O)N[C@H](CCC(N)=O)C(=O)N[C@H](CCCNC(=N)N)C(=O)N[C@H](CCCNC(=N)N)C(=O)N[C@H](CCCCN)C(=O)N[C@H](CCCCN)C(=O)N[C@H](CCCNC(=N)N)C(=O)NCC(=O)O` [PYC38/39D-TAT] (H-[dR][dH][dA][dP][dL][dA][dR]G[dS][dW][dR]G[dQ][dP][dQ][dQ]G[dP][dQ][dR][dR]G[dQ][dL]GG[dR][dR][dR][dQ][dR][dR][dK][dK][dR]G-OH; N-terminus and C-terminus assumed) was tested, and the “neuroprotection compared with JNKI-1D-TAT” value [1] was “greater neuroprotection than JNKI-1D-TAT”, the “neuroprotection following glutamate excitotoxicity” value [1, 4] was “initial significant neuroprotection” and the “neuronal viability following glutamate excitotoxicity” value [1, 3] was 83%.
In the case of `CC[C@@H](C)[C@@H](NC(=O)[C@@H](CC(N)=O)NC(=O)[C@@H](CCC(N)=O)NC(=O)[C@@H](CCC(=O)O)NC(=O)[C@@H](Cc1c[nH]cn1)NC(=O)[C@@H](Cc1c[nH]cn1)NC(=O)[C@@H](CCCNC(=N)N)NC(=O)[C@@H](CC(C)C)NC(=O)[C@@H](CC(C)C)NC(=O)[C@H]1CCCN1C(=O)[C@H](N)CC(C)C)C(=O)N[C@H](CO)C(=O)N[C@@H](C(=O)NCC(=O)N[C@H](CCCNC(=N)N)C(=O)N[C@H](CCCNC(=N)N)C(=O)N[C@H](CCCNC(=N)N)C(=O)N[C@H](CCC(N)=O)C(=O)N[C@H](CCCNC(=N)N)C(=O)N[C@H](CCCNC(=N)N)C(=O)N[C@H](CCCCN)C(=O)N[C@H](CCCCN)C(=O)N[C@H](CCCNC(=N)N)C(=O)NCC(=O)O)C(C)C` [PYC41D-TAT], the “neuroprotection following glutamate excitotoxicity” value [1, 4] is reported as “initial significant neuroprotection” and the “neuronal viability following glutamate excitotoxicity” value [1, 3] is reported as 40%.
